Assay results: patent publication EP0329295A1, “Renin inhibiting peptides with polar end groups” (THE UPJOHN COMPANY, priority 1988, dated 1989)
pIC50: −log10 of the molar value. *1 amine or outer side, *2 acyl side, *3 side chain or, on linkers, in order; H or OH if unused. Where a SMILES comes first, the peptide text is derived from it. [ ]: non-standard residue; d: D form. The star is where a group is joined. NH(β-GlcNAc) = CC(=O)N[C@@H]1[C@@H](O)[C@H](O)[C@@H](CO)O[C@H]1N*; X1 = CC(C)C[C@H](N[*:1])[C@@H](O)C[C@H](C(=O)[*:2])C(C)C; X2 = OC[C@H]1O[C@@H](N*)[C@@H](O)[C@@H](O)[C@@H]1O; GlcN = OC[C@H]1OC(O)[C@H](N*)[C@@H](O)[C@@H]1O; NMeH = CN[C@@H](Cc1c[nH]cn1)C(=O)O; NHCH2(2-pyridyl) = c1ccc(CN*)nc1; Boc = CC(C)(C)OC(=O)*; CO = O=C([*:1])[*:2]

Biological target: T1, renin (Homo sapiens, UniProt P00797)
T1 sequence (P00797 67-406): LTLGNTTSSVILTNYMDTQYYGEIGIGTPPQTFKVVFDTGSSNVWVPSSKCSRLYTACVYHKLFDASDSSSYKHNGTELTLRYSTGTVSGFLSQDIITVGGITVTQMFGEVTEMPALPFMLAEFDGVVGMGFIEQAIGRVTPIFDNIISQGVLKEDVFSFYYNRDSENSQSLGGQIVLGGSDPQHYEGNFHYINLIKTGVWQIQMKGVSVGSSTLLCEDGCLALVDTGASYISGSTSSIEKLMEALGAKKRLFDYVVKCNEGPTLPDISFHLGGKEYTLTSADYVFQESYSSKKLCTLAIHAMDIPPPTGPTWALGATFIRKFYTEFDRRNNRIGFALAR
Test: renin inhibitory activity (IC50), determined as described in EP 0173481, pages 103-105
Format: biochemical
Conditions: renin inhibition; for IC50: values in nM; for pIC50: values given in molar units
From the text: The determination of renin inhibitory activity of the compounds of the present invention (ICso's) are well known to one of ordinary skill in the art, as, for example, described in published European application 0173481, published 5 March 1986, pages 103-105.

Compound	IC50	pIC50
COC(=O)CC[C@H](NC(=O)[C@@H](C[C@H](O)[C@H](CC1CCCCC1)NC(=O)[C@H](Cc1c[nH]cn1)N(C)C(=O)[C@H](Cc1ccccc1)NC(=O)[C@@H]1CCCN1C(=O)NC(CO)(CO)CO)C(C)C)C(=O)NCc1ccccn1 (relative stereo) [Example 32, [1 S-[1R*,2R*,4R*(R*)]]-1-[[[2-Hydroxy-1,1-bis(hydroxymethyl)ethyl]amino]carbonyl]-L-prolyl-L-phenylalaryl-N-[1-(cyclohexylmethyl)-2-hydroxy-4-[[[4-methoxy-4-oxo-1-[[(2-pyridinylmethyl)amino]carbonyl]-butyl]-amino]carbonyl]-5-methyl-hexyl]-Nα-methyl-L-histidinamide]		9.52
CC[C@H](C)[C@H](NC(=O)[C@@H](C[C@H](O)[C@H](CC(C)C)NC(=O)[C@H](Cc1c[nH]cn1)N(C)C(=O)[C@H](Cc1ccccc1)NC(=O)[C@@H]1CCCN1C(=O)N[C@H]1C(O)O[C@H](CO)[C@@H](O)[C@@H]1O)C(C)C)C(=O)NCc1ccccn1 (stereo partly drawn) [Example 9, N-(Glucosaminocarbonyl)-Pro-Phe-N(Me)His-LVA-lie-AMP] ({GlcN-CO}-PF[NMeH][X1]I-{NHCH2(2-pyridyl)})		9.31
COc1ccc(C[C@H](NC(=O)[C@@H]2CCCN2C(=O)NC(CO)(CO)CO)C(=O)N[C@@H](Cc2c[nH]cn2)C(=O)N[C@@H](CC2CCCCC2)[C@@H](O)[C@@H](O)CC(C)C)cc1 [Example 14, L-Histidinamide, 1-[[[2-hydroxy-1,1-bis(hydroxymethyl)ethyl]amino]carbonyl]-L-prolyl-O-methyl-L-tyrosyl-N-[1-(cyclohexylmethyl)-2,3-dihydroxy-5-methylhexyl]-, [1S-(1R*,2S*,3R*)]-]	0.21 nM	
CC[C@H](C)[C@H](NC(=O)[C@@H](C[C@H](O)[C@H](CC(C)C)NC(=O)[C@H](Cc1c[nH]cn1)N(C)C(=O)[C@H](Cc1ccccc1)NC(=O)[C@@H]1CCCN1C(=O)[C@H](CC(=O)N[C@@H]1O[C@H](CO)[C@@H](O)[C@H](O)[C@H]1NC(C)=O)NC(=O)OC(C)(C)C)C(C)C)C(=O)NCc1ccccn1 [Example 36, β-N-AcGLc-α-N-Boc-Asn-Pro-Phe-N-MeHis-Leu[CH(OH)CH2]-Val-Ile-AMP] (Boc-D(NH(β-GlcNAc))PF[NMeH][X1]I-{NHCH2(2-pyridyl)})		9.39
CC[C@H](C)[C@H](NC(=O)[C@@H](C[C@H](O)[C@H](CC(C)C)NC(=O)[C@H](Cc1c[nH]cn1)N(C)C(=O)[C@H](Cc1ccccc1)NC(=O)[C@@H]1CCCN1C(=O)[C@H](CC(=O)N[C@@H]1O[C@H](CO)[C@@H](O)[C@H](O)[C@@H]1O)NC(=O)OC(C)(C)C)C(C)C)C(=O)NCc1ccccn1 [Example 38, β-Man-α-N-Boc-Asn-Pro-Phe-N-MeHis-Leu[CH(OH)CH2]-Val-Ile-AMP] (Boc-D(X2)PF[NMeH][X1]I-{NHCH2(2-pyridyl)})		9.26

Further lines, results first:

IC50	pIC50	Compound
0.26 nM		CC(C)C[C@H](O)[C@H](O)[C@H](CC1CCCCC1)NC(=O)[C@H](Cc1c[nH]cn1)N(C)C(=O)[C@H](Cc1ccccc1)NC(=O)[C@@H]1CCCN1C(=O)NC(CO)(CO)CO (relative stereo) [Example 12, L-Histidinamide, 1-[[[2-hydroxy-1,1-bis(hydroxymethyl)ethyl]amino]carbonyl]-L-prolyl-L-phenylalanyl-N-[1 (cyclohexylmethyl)-2,3-dihydroxy-5-methylhexyl]-Nα-methyl-, [1 S-(1 R*,2S*,3R*)-]-]
2.4 nM		CC(C)C[C@H](O)[C@H](O)[C@H](CC1CCCCC1)NC(=O)[C@H](Cc1c[nH]cn1)N(C)C(=O)[C@H](Cc1ccccc1)NC(=O)[C@@H]1CCCN1C(=O)N[C@H]1C(O)O[C@H](CO)[C@@H](O)[C@@H]1O (relative stereo) [Example 13, L-Histadinamide, 1-([(2-deoxy-D-glucopyranos-2-yl)amino]carbonyl]-L-prolyl-L-phenylalanyl-N-[1-(cyclohexylmethyl)-2,3-dihydroxy-5-methylhexyl]-N.aIpha.-methyl-, [1 S-(1 R*,2S*,3R(*)]]-]
2.3 nM		COc1ccc(C[C@H](NC(=O)[C@@H]2CCCN2C(=O)N[C@H]2C(O)O[C@H](CO)[C@@H](O)[C@@H]2O)C(=O)N[C@@H](Cc2c[nH]cn2)C(=O)N[C@@H](CC2CCCCC2)[C@@H](O)[C@@H](O)CC(C)C)cc1 (relative stereo) [Example 15]
	8.82	CC(C)[C@H](C[C@H](O)[C@H](CC1CCCCC1)NC(=O)[C@H](Cc1c[nH]cn1)N(C)C(=O)[C@H](Cc1ccccc1)NC(=O)[C@@H]1CCCN1C(=O)N[C@H]1C(O)O[C@H](CO)[C@@H](O)[C@@H]1O)C(=O)NC[C@H](C)O (relative stereo) [Example 29, [1 S-[1 R*,2R*,4R*(R*)]]-1-[[(2-Deoxy-D-glucopyranos-2-yl)amino]carbonyl]-L-Prolyl-L-phenylalaryl-N-[1-(cyclohexylmethyl)-2-hydroxy-4-[[(2-hydroxypropyl)-amino]carbonyl]-5-methylhexyl]-Nα-methyl-L-histidinamide]
